≈ marks a conversion by molar mass, not a printed value. Read-outs that look alike come from different tables or passages of the source.
Assays:
S. aureus 29213 = conditions: MIC range, cited from earlier work
patient sample microbes [1] = conditions: antimicrobial panel 1, MIC range; cited from earlier work
patient sample microbes [2] = test: AST MIC results for antimicrobial panel 1 (384-well panel from Master Plate vs 96-well panel); format: cell-based; conditions: for MICs obtained from panel made from Master Plate: antimicrobial panel 1, 384 well patient cartridge; for MICs obtained from 96-well Antibiotic Panel: antimicrobial panel 1, standard 96 well AST assay plate
Description: (§1) An assay setup comprises preparation of patient (target) cartridge by dispensing antimicrobials were from the master cartridge or intermediate serial dilution cartridges into one or more 384 reservoir patient cartridge, each antimicrobial in about 7 serial dilutions in triplicate, and covering the dynamic range of each antimicrobial that is known to be effective and therefore should be reported. The dilution range included the expected minimum inhibitory concentration (MIC) for each antimicrobial. But most importantly, dilution ranges, that is, antimicrobial concentrations beyond the range known to be effective are included in the patient cartridge as per the present invention.
(§2) The remaining reservoirs of the 384 well patient cartridge are utilized for setting up test controls: a no-antimicrobial control (negative control) was included for each antimicrobial compound; and a positive control was included for each antimicrobial set, where a microorganism that is not susceptible to the antimicrobial was added to the well. Each control set was also dispensed at least in duplicate per 384 well cartridge. Additional test controls may be included as deemed necessary by one of skill in the art. Equal amount of a patient sample was dispensed to each of the wells in the cartridge, except in the wells designated for no-sample control, if included. The patient cartridge was ready for determination of susceptibility of microbes from the patient sample to the twelve antimicrobials at the range of concentrations applied, simultaneously. Multiple such plates can be set up in parallel for testing samples from multiple patients, each patient sample per plate. An AST assay was performed on the prepared patient cartridges.
(§3) First, three master plates are loaded by the user onto chilled plate holders (set to 4° C.). These consist of one Broad Spectrum, one Gram-Positive and one Gram-Negative antibiotic plate. Next the bulk reagents and pipette tips are loaded on tube rack. Master and bulk reagent pipette tips and sample dilution tray are reloaded every 12 samples. For every set of tests, up to four Patient Samples in tubes and up to four 384-well Target Plates (Patient plate) are loaded.
(§4) Antibiotics are transferred from Broad Spectrum Master Plate to Target Plate(s). Antibiotics are “stamped” according to FIG. 10A-B. The inoculator tips should be placed back in the same position of the Broad Spectrum Tip Box for use on subsequent target plates, but should only be used for same antibiotics to avoid cross contamination.
(§5) Antimicrobials are transferred from Gram-Positive OR Gram-Negative Master Plate to Target Plate(s) and the antibiotics are “stamped” according to FIG. 11A-B. The inoculator should place tips back in the same position of the correct tip box for use on subsequent target plates. Good care is taken such that any cross contamination is prevented.
(§6) Using new tips from the Sample Tip Box, 50 μL of diluted patient sample are transferred into Target Plate according to Table Four, this is done with a “jet dispense” to avoid cross contamination. After the Patient Sample has been transferred to each well on the Target Plate, the tips should be disposed of to avoid cross contamination. The above steps are repeated for each additional Patient Sample and Target Plate.
(§7) Shown in Table 6 and Table 7, MIC results for antimicrobial panels 1 and 2 respectively using a master cartridge format and a 384 well patient cartridge (column 3) agrees reliably with that run by standard 96 well AST assay plate (right hand column).

patient sample microbes [3] = test: AST MIC results for antimicrobial panel 2 (384-well panel from Master Plate vs 96-well panel); format: cell-based; conditions: for MICs obtained from panel made from Master Plate: antimicrobial panel 2, 384 well patient cartridge; for MICs obtained from 96-well Antibiotic Panel: antimicrobial panel 2, standard 96 well AST assay plate
Description: as §1, §2, §3, §4, §5, §6, §7

[4] = test system: clinical isolate of S. aureus; test: Broth microdilution reference method MIC; format: cell-based; conditions: Staphylococcus aureus, read-out: MICs obtained from the broth microdilution reference method
Experimental: The antibiotics shown are vancomycin, daptomycin, ceftaroline and levofloxacin, of which the MICs obtained from the broth microdilution reference method for this strain were 0.5, 0.25, 0.12, and 0.25 μg/ml, respectively. A clinical isolate of S. aureus was used. Data represents the TRF signal in RFUs. Graphs in the top row contain data from 384-well plates. Graphs in the bottom row contain data from 96-well plates.

E. faecalis 29212 = conditions: MIC range, cited from earlier work
E. coli 25922 = conditions: MIC range, E. coli 25922, Gram negative panel; cited from earlier work
patient sample microbes [5] = conditions: antimicrobial panel 2, MIC range; cited from earlier work
[6] = S. aureus 29213, Gram negative panel
[7] = E. faecalis 29212, Gram positive panel
[8] = E. faecalis 29212, Gram negative panel
[9] = S. aureus 29213, Gram positive panel

Compound: NCC[C@H](O)C(=O)N[C@@H]1C[C@H](N)[C@@H](O[C@H]2O[C@H](CN)[C@@H](O)[C@H](O)[C@H]2O)[C@H](O)[C@H]1O[C@H]1O[C@H](CO)[C@@H](O)[C@H](N)[C@H]1O [Amikacin]
- CLSI-Defined QC Range (S. aureus 29213; [6]): 1 to 4 µg/mL
- Quality Control Range (patient sample microbes [1]): 0.5-4
- MICs obtained from panel made from Master Plate (patient sample microbes [2]): 4 µg/mL
- MICs obtained from 96-well Antibiotic Panel (patient sample microbes [2]): 4 µg/mL

Compound: C[C@H]1COc2c(N3CCN(C)CC3)c(F)cc3c(=O)c(C(=O)O)cn1c23 [Levofloxacin]
- MICs obtained from panel made from Master Plate (patient sample microbes [3]): ≤ 0.25 µg/mL
- MICs obtained from 96-well Antibiotic Panel (patient sample microbes [3]): 0.25 µg/mL
- MIC ([4]; clinical isolate of S. aureus): 0.25 µg/mL (≈ 0.692 µM)
- MICs obtained from panel made from Master Plate (patient sample microbes [2]): ≤ 0.25 µg/mL
- MICs obtained from 96-well Antibiotic Panel (patient sample microbes [2]): ≤ 0.06 µg/mL

Compound: CN(C)[C@@H]1C(O)=C(C(N)=O)C(=O)[C@@]2(O)C(O)=C3C(=O)c4c(O)c(NC(=O)CN5CCCC5)cc(F)c4C[C@H]3C[C@@H]12 [Eravacycline]
- CLSI-Defined QC Range (E. faecalis 29212; [7]): 0.016 to 0.06 µg/mL
- CLSI-Defined QC Range (E. coli 25922): 0.03 to 0.12 µg/mL

Compound: CO[C@H]1/C=C/O[C@@]2(C)Oc3c(C)c(O)c4c(O)c(c(/C=N/N5CCN(C)CC5)c(O)c4c3C2=O)NC(=O)/C(C)=C\C=C\[C@H](C)[C@H](O)[C@@H](C)[C@@H](O)[C@@H](C)[C@H](OC(C)=O)[C@@H]1C [Rifampin]
- CLSI-Defined QC Range (E. faecalis 29212; [7]): 0.5 to 4 µg/mL
- MICs obtained from panel made from Master Plate (patient sample microbes [3]): ≤ 0.25 µg/mL
- MICs obtained from 96-well Antibiotic Panel (patient sample microbes [3]): 0.004 µg/mL
- Quality Control Range (patient sample microbes [5]): 0.004-0.015

Compound: Cc1nnc(SCC2=C(C(=O)O)N3C(=O)[C@@H](NC(=O)Cn4cnnn4)[C@H]3SC2)s1 [Cefazolin]
- CLSI-Defined QC Range (E. coli 25922): 1 to 4 µg/mL

Compound: NC[C@H]1O[C@H](O[C@H]2[C@H](O)[C@@H](O[C@H]3O[C@H](CO)[C@@H](O)[C@H](N)[C@H]3O)[C@H](N)C[C@@H]2N)[C@H](N)C[C@@H]1O [Tobramycin]
- CLSI-Defined QC Range (E. faecalis 29212; [8]): 8 to 32 µg/mL
- Quality Control Range (patient sample microbes [1]): 0.25-1
- MICs obtained from panel made from Master Plate (patient sample microbes [2]): 0.5 µg/mL
- MICs obtained from 96-well Antibiotic Panel (patient sample microbes [2]): 1 µg/mL

Compound: CO/N=C(\C(=O)N[C@@H]1C(=O)N2C(C(=O)O)=C(CSc3nc(=O)c(=O)[nH]n3C)CS[C@H]12)c1csc(N)n1 [Ceftriaxone]
- CLSI-Defined QC Range (S. aureus 29213; [6]): 1 to 8 µg/mL
- MICs obtained from panel made from Master Plate (patient sample microbes [3]): 2 µg/mL
- MICs obtained from 96-well Antibiotic Panel (patient sample microbes [3]): 4 µg/mL
- Quality Control Range (patient sample microbes [1]): 0.03-0.12
- Quality Control Range (patient sample microbes [5]): 1-8
- MICs obtained from panel made from Master Plate (patient sample microbes [2]): ≤ 0.125 µg/mL
- MICs obtained from 96-well Antibiotic Panel (patient sample microbes [2]): ≤ 0.12 µg/mL

Compound: CC(=O)NC[C@H]1CN(c2ccc(N3CCOCC3)c(F)c2)C(=O)O1 [Linezolid]
- CLSI-Defined QC Range (S. aureus 29213; [9]): 1 to 4 µg/mL
- MICs obtained from panel made from Master Plate (patient sample microbes [3]): 2 µg/mL
- MICs obtained from 96-well Antibiotic Panel (patient sample microbes [3]): 2 µg/mL
- Quality Control Range (patient sample microbes [5]): 1-4

Compound: COc1cc(Cc2cnc(N)nc2N)cc(OC)c1OC [Trimethoprim]
- CLSI-Defined QC Range (S. aureus 29213; [9]): 1 to 4 µg/mL

Compound: Cn1nnc(-c2ccc(-c3ccc(N4C[C@H](CO)OC4=O)cc3F)cn2)n1 [Tedizolid]
- MICs obtained from panel made from Master Plate (patient sample microbes [3]): 0.25 µg/mL
- MICs obtained from 96-well Antibiotic Panel (patient sample microbes [3]): 0.5 µg/mL
- Quality Control Range (patient sample microbes [5]): 0.25-1

Compound: CC[C@H]1OC(=O)[C@H](C)[C@@H](O[C@H]2C[C@@](C)(OC)[C@@H](O)[C@H](C)O2)[C@H](C)[C@@H](O[C@@H]2O[C@H](C)C[C@H](N(C)C)[C@H]2O)[C@](C)(O)C[C@@H](C)CN(C)[C@H](C)[C@@H](O)[C@]1(C)O [Azithromycin]
- CLSI-Defined QC Range (S. aureus 29213; [9]): 0.5 to 2 µg/mL

Compound: CO/N=C(\C(=O)N[C@@H]1C(=O)N2C(C(=O)O)=C(COC(N)=O)CS[C@H]12)c1ccco1 [Cefuroxime]
- CLSI-Defined QC Range (E. coli 25922): 2 to 8 µg/mL

Compound: CC[C@H]1OC(=O)[C@H](C)[C@@H](O[C@H]2C[C@@](C)(OC)[C@@H](O)[C@H](C)O2)[C@H](C)[C@@H](O[C@@H]2O[C@H](C)C[C@H](N(C)C)[C@H]2O)[C@](C)(O)C[C@@H](C)C(=O)[C@H](C)[C@@H](O)[C@]1(C)O [Erythromycin]
- CLSI-Defined QC Range (E. faecalis 29212; [7]): 1 to 4 µg/mL

Compound: CN[C@H](CC(C)C)C(=O)N[C@H]1C(=O)N[C@@H](CC(N)=O)C(=O)N[C@H]2C(=O)N[C@H]3C(=O)N[C@H](C(=O)N[C@H](C(=O)O)c4cc(O)cc(O)c4-c4cc3ccc4O)[C@H](O)c3ccc(c(Cl)c3)Oc3cc2cc(c3O[C@@H]2O[C@H](CO)[C@@H](O)[C@H](O)[C@H]2O[C@H]2C[C@](C)(N)[C@H](O)[C@H](C)O2)Oc2ccc(cc2Cl)[C@H]1O [Vancomycin]
- CLSI-Defined QC Range (S. aureus 29213; [9]): 0.5 to 2 µg/mL
- MIC [4]: 0.5 µg/mL (≈ 0.345 µM)

Compound: CCO/N=C(\C(=O)N[C@@H]1C(=O)N2C(C(=O)[O-])=C(Sc3nc(-c4cc[n+](C)cc4)cs3)CS[C@H]12)c1nsc(N)n1 [Ceftaroline]
- MICs obtained from panel made from Master Plate (patient sample microbes [3]): 0.5 µg/mL
- MICs obtained from 96-well Antibiotic Panel (patient sample microbes [3]): 0.25 µg/mL
- MIC ([4]; clinical isolate of S. aureus): 0.12 µg/mL (≈ 0.198 µM)

Compound: CO/N=C(\C(=O)N[C@@H]1C(=O)N2C(C(=O)[O-])=C(C[N+]3(C)CCCC3)CS[C@H]12)c1csc(N)n1 [Cefepime]
- CLSI-Defined QC Range (S. aureus 29213; [6]): 1 to 4 µg/mL
- Quality Control Range (patient sample microbes [1]): 0.015-0.12
- MICs obtained from panel made from Master Plate (patient sample microbes [2]): ≤ 0.25 µg/mL
- MICs obtained from 96-well Antibiotic Panel (patient sample microbes [2]): ≤ 0.03 µg/mL

Compound: Nc1nc(-n2cc(C(=O)O)c(=O)c3cc(F)c(N4CC(O)C4)c(Cl)c32)c(F)cc1F [Delafloxacin]
- CLSI-Defined QC Range (E. faecalis 29212; [7]): 0.016 to 0.12 µg/mL

Compound: C[C@@H](O)[C@H]1C(=O)N2C(C(=O)O)=C(S[C@@H]3CN[C@H](C(=O)N(C)C)C3)[C@H](C)[C@H]12 [Meropenem]
- CLSI-Defined QC Range (E. faecalis 29212; [8]): 2 to 8 µg/mL

Compound: Cc1onc(-c2ccccc2)c1C(=O)N[C@@H]1C(=O)N2[C@@H]1SC(C)(C)[C@@H]2C(=O)O [Oxacillin]
- CLSI-Defined QC Range (S. aureus 29213; [9]): 0.12 to 0.5 µg/mL
- MICs obtained from panel made from Master Plate (patient sample microbes [3]): 0.5 µg/mL
- MICs obtained from 96-well Antibiotic Panel (patient sample microbes [3]): 0.5 µg/mL
- Quality Control Range (patient sample microbes [5]): 0.12-0.5

Compound: CCCCCCCCCC(=O)N[C@@H](Cc1c[nH]c2ccccc12)C(=O)N[C@H](CC(N)=O)C(=O)N[C@@H](CC(=O)O)C(=O)N[C@@H]1C(=O)NCC(=O)N[C@@H](CCCN)C(=O)N[C@@H](CC(=O)O)C(=O)N[C@H](C)C(=O)N[C@@H](CC(=O)O)C(=O)NCC(=O)N[C@H](CO)C(=O)N[C@@H]([C@H](C)CC(=O)O)C(=O)N[C@@H](CC(=O)c2ccccc2N)C(=O)O[C@@H]1C [Daptomycin]
- CLSI-Defined QC Range (E. faecalis 29212; [7]): 1 to 4 µg/mL
- MIC ([4]; clinical isolate of S. aureus): 0.25 µg/mL (≈ 0.154 µM)

Compound: CO/N=C(\C(=O)N[C@@H]1C(=O)N2C(C(=O)O)=C(COC(C)=O)CS[C@H]12)c1csc(N)n1 [Cefotaxime]
- CLSI-Defined QC Range (S. aureus 29213; [6]): 1 to 4 µg/mL

Compound: C[C@@H](O)[C@H]1C(=O)N2C(C(=O)O)=C(S[C@@H]3CN[C@H](C(=O)Nc4cccc(C(=O)O)c4)C3)[C@H](C)[C@H]12 [Ertapenem]
- CLSI-Defined QC Range (S. aureus 29213; [6]): 0.06 to 0.25 µg/mL

Compound: Penicillin
- CLSI-Defined QC Range (S. aureus 29213; [9]): 0.25 to 2 µg/mL

Reference: US11390900B2, “Antimicrobial cartridges and processes for multiplexed antimicrobial susceptibility testing” (priority 2018, dated 2022)
